Assay results as given in patent US12029777B2, “Serine proteinase inhibitors: Serp-1 and Serp-1 RCL-derived peptides effect on microbiome composition and uses thereof” (ARIZONA BOARD OF REGENTS ON BEHALF OF ARIZONA STATE …, priority 2019, dated 2024).
“Also recorded” adds a separate entry of the source.

B1: Serp-1: secreted myxomavirus-derived serine protease inhibitor (serpin), purified protein, SEQ ID NO: 1 (protein)
chain: MKYLVLVLCLTSCACRDIGLWTFRYVYNESDNVVFSPYGLTSALSVLRIAAGGNTKREIDVPESVVEDSDAFLALRELFVDASVPLRPEFTAEFSSRFNTSVQRVTFNSENVKDVINSYVKDKTGGDVPRVLDASLDRDTKMLLLSSVRMKTSWRHVFDPSFTTDQPFYSGNVTYKVRMMNKIDTLKTETFTLRNVGYSVTELPYKRRQTAMLLVVPDDLGEIVRALDLSLVRFWIRNMRKDVCQVVMPKFSVESVLDLRDALQRLGVRDAFDPSRADFGQASPSNDLYVTKVLQTSKIEADERGTTASSDTAITLIPRNALTAIVANKPFMFLIYHKPTTTVLFMGTIT
modifications: Serp-1 recombinant polypeptide

Columns and labels:
MHV-68 [1] = assay: Survival after lethal intraperitoneal MHV-68 infection of IFNγR−/− mice; type: in vivo; details: for survival after MHV-68 infection (modified S-7 peptides): MHV-68 infection model; for survival at 150 days: 100 ng/g IP injections for 30 days, no antibiotics, MHV-68 infected IFNγR−/− mice; for median survival: 10 days antibiotic pre-treatment, then MHV-68 infection and 30 days IP treatment; for efficacy after antibiotic treatment versus saline treatment after antibiotics: +Abx vs Saline+Abx, survival
Excerpt: Animals. IFNγR^−/− mice (B6.129S7-Ifngr1^tm1Agt/J) were purchased from the Jackson Laboratory (Bar Harbor, ME, USA). Animals were housed in barrier conditions at the University of Florida Animal Care Services vivarium and bred under specific pathogen-free conditions. Mice were weaned at 3 weeks, maintained on a 12-hour light-dark cycle and were fed water and standard rodent chow ad libitum.
Antibiotic treatment. At 4 weeks of age, IFNγR^−/− mouse cohorts were transferred from the ABSL1 colony to a separate, ABSL2 colony. Gut microbiome suppression was achieved by replacing standard drinking water with autoclaved reverse osmosis water (obtained from the same animal care facility) containing an antibiotic cocktail (Table 1) composed of Streptomycin (2 g/L), Gentamicin (0.5 g/L), Bacitracin (1 g/L) and Ciprofloxacin (0.125 g/L) for 10 days. One day (24 hours) prior to infection, medicated water was replaced with standard animal care facility water, which was maintained for the remainder of the experiment.
MHV-68 infection. On day 11 (after 10 days of antibiotics) mice (5 weeks old) were infected with MHV-68 at a dose of 12.5×10^6 PFU in 0.1 mL DMEM by intraperitoneal (IP) injection as previously described22,25,27,30. Mice were returned to the colony and monitored for signs of distress for the duration of the experiment. Mice were either followed for 150 days to determine survival or euthanized at 3 days post-infection and organs harvested into formalin for histology or RNAlater (Thermo Scientific, USA) for microbiome analyses. Details on the numbers of MHV-68-infected mice in this study are detailed in Table 2.
Statistical analysis. Survival and pathology statistics were analyzed with GraphPad Prism v8.0.1. Kaplan-Meier survival statistics were calculated using Log-rank (Mantel-Cox) testing. For visualization, individual comparison curves are presented. Lung pathology statistics were compared using a Two-Way ANOVA with a Fisher's LSD or Tukey's post-hoc test. Bars are mean±standard error. P-value less than 0.05 was considered significant. *p<0.05, **p<0.01, ***p<0.001, ****p<0.0001; n.s. is not significant.
MHV-68 infections establish latency with chronic infection in wildtype mice, causing only flu-like symptoms. Conversely, intraperitoneal infection of mice with underlying immune deficiency, as for IFNγR^−/− mice, results in a lethal large vessel vasculitis, colitis and hemorrhagic pneumonia with early mortality. Intranasal infection, an alternative model for MHV-68, is not a model for severe vasculitic syndromes. This intraperitoneal infection model of vasculitis has been used to study the pathogenesis of gammaherpesvirus host-pathogen interactions, as well as to investigate the potential for anti-inflammatory treatment of associated inflammatory vasculitic syndromes. Intraperitoneal infection of IFNγR−/− mice with 12.5×10^6 pfu was performed with follow-up for 150 days to determine survival rates. MHV-68 infection with administration of control saline treatment alone for 30 days was lethal, with a median survival of 41 days. […] Thus, Serp-1 and S-7 protect IFNγR−/− mice after lethal MHV-68 infection.
The potential for dependence of Serp-1 and S-7 therapeutic efficacy on the gut bacterial microbiome in MHV-68 infected IFNγR^−/− mice was investigated. Mice were treated with medicated drinking water (Table 1) for 10 days, placed on normal water for 24 hours, then infected with MHV-68 and concurrently treated for 30 days with either Serp-1 or S-7 by IP injection. Mice were followed for survival or 3-day follow-up (FIG. 2A).

MHV-68 [2] = assay: MHV-68 antigen immunostaining in lungs at 3 days after infection; type: in vivo, mice; details: for MHV-68 antigen levels in the lungs: without antibiotic treatment, 3-day follow-up
Experimental: (§1) Immunohistochemistry. FFPE blocks containing lung tissue were sectioned into 4-6 μm ribbons, captured on charged glass and dried overnight at 37° C. prior to processing. Slides were rehydrated and epitopes retrieved by boiling in sodium citrated buffer. Endogenous peroxidases were quenched with 3% hydrogen peroxide, slides were blocked in 5% bovine serum albumin in TBS/0.1% Tween 20 and sections were probed with rabbit polyclonal antibody against CD3 (Abcam ab5690; 1:200), CD4 (Abcam ab183685; 1:1000) or CD8 (Abcam ab209775; 1:2000). For MHV-68 detection, 1:500 rabbit anti-serum or pre-immune serum (as control) were used for immunostaining (kind gift of Dr. H. W. Virgin 1119). 1:500 goat anti-rabbit HRP was used for secondary staining (Jackson Immuno Research 111-035-144). […] Sections were imaged with a 40×/0.75NA objective.

MHV-68 [3] = assay: Lung histopathology and quantitative morphometry at 3 days after MHV-68 infection; type: in vivo, mice; details: for severe pulmonary pathology (consolidation and inflammation): absence of antibiotics, vs saline; for severe pulmonary pathology (consolidation and inflammation) / early lung pathology after antibiotic treatment: 3-day follow-up; for alveolar wall thickness: no antibiotics, versus saline-treated controls; for alveolar lumen area: without antibiotic pre-treatment, compared to saline-treated controls
Experimental: Histopathology. Mice were euthanized at 3 days follow-up after infection by carbon dioxide asphyxiation followed by cervical dislocation. Organs were harvested and fixed in 10% neutral buffered formalin. Samples were dehydrated through graded alcohol, paraffin-embedded, sectioned into 4-6 μm ribbons, captured on charged glass and dried overnight at 37° C. prior to processing for histopathology. Slides were rehydrated, stained with Gill's hematoxylin No. 3 and Eosin Y (H&E) according to standard procedure, dehydrated and mounted in Cytoseal XYL (Thermo Fisher Scientific, USA).
Quantitative morphometry. H&E-stained aorta, lung and colon sections were imaged with a 20×/0.5NA objective on an Olympus BX51 microscope equipped with an Olympus DP74 camera operated by cellSens Dimensions v1.16 software. Objective-calibrated measurements of alveolar septal thickness and lumen area were collected using cellSens Dimensions. At least 50 measurements were collected and averaged for each mouse, and at least three mice were examined for each group. Images were processed for visualization in figures using ImageJ/FIJI v1.52i92.

[4] = system: CD3+, CD4+ and CD8+ cells in the lungs; assay: Immunohistochemistry of CD3+, CD4+, CD8+ cells in lungs at 3 days after MHV-68 infection; type: in vivo, mice; details: for CD3 infiltration-promoting effect and CD8 bias after antibiotic treatment: after antibiotic depletion of gut microbiome; for CD8+ staining in lungs / detectable CD3+ cells in the lungs / pulmonary CD4+ cells: no antibiotics, 3-day follow-up
Experimental: as §1

uPA = uPA (Homo sapiens, UniProt P00749); assay: In vitro uPA substrate conversion assay; type: biochemical; details: presence of the antibiotic cocktail

| Molecule | survival after MHV-68 infection (modified S-7 peptides) (MHV-68 [1]) | decrease in detectable MHV68 after antibiotic pre-treatment (MHV-68 [2]) | MHV-68 antigen levels in the lungs (MHV-68 [2]) | survival at 150 days (MHV-68 [1]) [%] | median survival (MHV-68 [1]) [days] | efficacy after antibiotic treatment versus saline treatment after antibiotics (MHV-68 [1]) | severe pulmonary pathology (consolidation and inflammation) (MHV-68 [3]) | early lung pathology after antibiotic treatment (MHV-68 [3]) | alveolar lumen area protection after antibiotic treatment (MHV-68 [3]; after antibiotics) | reduction in alveolar wall thickness after treatment with antibiotics (MHV-68 [3]; after antibiotics) | alveolar wall thickness (MHV-68 [3]) | alveolar lumen area (MHV-68 [3]) | CD3 infiltration-promoting effect and CD8 bias after antibiotic treatment [4] | CD8+ staining in lungs [4] | detectable CD3+ cells in the lungs [4] | pulmonary CD4+ cells [4] | inhibition of uPA activity in presence of broad-spectrum antibiotic cocktail (uPA) |
| --- | --- | --- | --- | --- | --- | --- | --- | --- | --- | --- | --- | --- | --- | --- | --- | --- | --- |
| GTTASSDTAITDEPR (Modified S7 peptide MPS7-9) | improved survival | – | – | – | – | – | – | – | – | – | – | – | – | – | – | – | – |
| GTTASSDTAITLEPR (Modified S-7 peptide MPS7-8) | improved survival | – | – | – | – | – | – | – | – | – | – | – | – | – | – | – | – |
| GTTASSDTAITLIPR (Reactive Center Loop Polypeptide sequence of for a serine protease inhibitor) [S-7] | – | partially reversed | significantly reduced | 60 | 18 | not significantly different | considerably reduced | markedly worse | nullified any level of protection | lost | significant reduction | significantly increased | loss | significant increases | significantly increased | no appreciable effect | – |
| B1 | – | partially reversed | significantly reduced | 60 | 19 | not significantly different | considerably reduced | markedly worse | – | lost | significant reduction | trend toward an increase | loss | strong trend towards increase | trended towards increasing | no appreciable effect | unaffected; also recorded: not affected |
